Experimental data from patent publication US5173416A, “L-carnitine dehydrogenase from alcalgenes” (Toyo Jozo Kabushiki Kaisha, priority 1989, dated 1992).
Like-named read-outs stand apart in the source and are kept apart here.

Test system: L-carnitine dehydrogenase from Alcaligenes sp. No. 981 (FERM BP-2570)
Experiment: Km determination of L-carnitine dehydrogenase (diaphorase/NBT coupled reaction mixture)
Assay type: biochemical
Protocol: Km-value for NAD^+ is measured in various concentrations of NAD^+ in a reaction mixture of:
100 mM Tris-HCl buffer (pH 9.0)
5 U diaphorase (Toyo Jozo Co.)
0.025% NBT (Wako Pure Chem. Co.)
1% Tween 80 (Wako Pure Chem. Co.) and
In the reaction mixture, 50 mM L-carnitine is replaced by 1 mM NAD^+, and the concentration of L-carnitine is varied to measure the Km-value of L-carnitine.
The results are as shown above.

Km (100 mM Tris-HCl buffer pH 9.0, 50 mM L-carnitine, NAD+ concentration varied, read-out: Km-value (NAD+)) [mM] | Compound | Km (100 mM Tris-HCl buffer pH 9.0, 1 mM NAD+, L-carnitine concentration varied, read-out: Km-value (L-carnitine)) [mM]
0.141 | NC(=O)c1ccc[n+]([C@@H]2O[C@H](COP(=O)([O-])OP(=O)(O)OC[C@H]3O[C@@H](n4cnc5c(N)ncnc54)[C@H](O)[C@@H]3O)[C@@H](O)[C@H]2O)c1 [NAD^+] | –
– | C[N+](C)(C)C[C@H](O)CC(=O)[O-] [L-carnitine] | 9.3
